The results in this text go back to patent publication US7273856B2, “Linear basic compounds having NK-2 antagonist activity and formulations thereof” (Menarini Ricerche S.P.A., priority 2001, dated 2007).

As a reminder, the Ki is a measure of affinity in units of concentration, obtained from inhibition or displacement. High values mean lower affinity, low ones higher affinity. As a reminder, the pKi is the negative decadic logarithm of the Ki, by convention in mol/L. A high value points to a small Ki.

Where a name gives a salt, the structure may show the parent alone. Read-outs that look alike come from different tables or passages of the source.

The target of this assay is T1, human NK-2 receptor (Homo sapiens, UniProt P21452).
T1 construct: expressed in transfected cells; host or cells: CHO (Chinese hamster ovary) cells, membranes
T1 sequence (P21452 1-398): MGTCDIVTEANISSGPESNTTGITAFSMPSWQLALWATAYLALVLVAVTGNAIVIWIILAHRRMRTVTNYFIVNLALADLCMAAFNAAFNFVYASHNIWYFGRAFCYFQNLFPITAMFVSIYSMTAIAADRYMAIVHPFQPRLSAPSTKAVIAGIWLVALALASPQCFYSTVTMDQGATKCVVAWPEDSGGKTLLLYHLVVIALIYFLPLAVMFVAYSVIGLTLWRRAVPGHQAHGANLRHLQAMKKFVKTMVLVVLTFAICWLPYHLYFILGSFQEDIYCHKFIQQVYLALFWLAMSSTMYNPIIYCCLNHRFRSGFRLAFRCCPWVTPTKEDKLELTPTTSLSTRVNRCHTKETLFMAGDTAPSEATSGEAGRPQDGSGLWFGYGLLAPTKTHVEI
Nature of the assay: binding test, affinity for the human NK-2 receptor, competition with [125I]NKA on transfected CHO cell membranes. The procedure:
The evaluation of the antagonist activity on NK-2 receptors has been assessed by binding and functional tests according to that already described in literature in relation to NK-2 antagonists.
The test substances have been tested within a concentration range from 0.01 nM to 10 nM. At the end of the incubation time (30 min, 20° C.) the samples have been filtered and radioactivity has been determined using a gamma-counter.

The mark [1] stands for this setting: CHO cell membranes transfected with NK-2 receptor of human ileum, [125I]NKA 100 pM, 30 min, 20° C.

Molecule `Cc1ccc(C=CC(=O)NC2(C(=O)NC(Cc3ccccc3)C(=O)NC3CCC(CN4CCOCC4)C3)CCc3ccccc32)cc1` (mixture of isomers) [Example 7, N^α[N^α(4(methyl)cinnamoyl)-(R,S)1-aminoindane-1-carboxy]-D-phenylalanine amide-N-[(1S,3R)-3-(morpholin-4-ylmethyl)cyclopentyl]] showed a Ki under setting [1] of 0.126 nM. With `NC1CCCCC1NC(=O)[C@@H]1C[C@@H](NC(=O)[C@@H](Cc2ccccc2)NC(=O)C2(NC(=O)c3cc4ccccc4s3)CCCC2)CN1` (relative stereo) [Example 36], the pKi under setting [1] was found to be 10.6. Under setting [1], `NC1CCCCC1NC(=O)C1CCC(NC(=O)C(Cc2ccccc2)NC(=O)C2(NC(=O)c3cc4ccccc4s3)CCCC2)C1` (single isomer, unassigned) [Example 2] gave an inhibition constant Ki of 0.158 nM. The same measure, in the same setting: the value for `NC1CCCCC1NC(=O)C1CCCC(NC(=O)C(Cc2ccccc2)NC(=O)C2(NC(=O)c3cc4ccccc4s3)CCCCC2)C1` (single isomer, unassigned) [Example 21] was 0.251 nM; that for `NC1CCCCC1NC(=O)C1CCC(NC(=O)C(Cc2ccccc2)NC(=O)C2(NC(=O)c3cc4ccccc4s3)CCCCC2)C1` (single isomer, unassigned) [Example 25] was 0.251 nM.

Molecule `NC1CCCCC1NC(=O)C1CCCC(NC(=O)C(Cc2ccccc2)NC(=O)C2(NC(=O)c3cc4ccccc4s3)CCCCC2)C1` (single isomer, unassigned) [Example 28] showed a Ki under setting [1] of 0.0501 nM.

Turning to `NC1CCCCC1NC(=O)C1CCC(NC(=O)C(Cc2ccccc2)NC(=O)C2(NC(=O)c3cc4ccccc4s3)CCCC2)C1` (single isomer, unassigned) [Example 37], affinity under setting [1] was put at a Ki of 0.0126 nM. Molecule `NC1CCCCC1NC(=O)C1CCC(NC(=O)C(Cc2ccccc2)NC(=O)C2(NC(=O)c3cc4ccccc4s3)CCCCC2)C1` (single isomer, unassigned) [Example 40] showed an inhibitory constant (Ki) under setting [1] of 1.26 nM. `NCCCCCNC(=O)C1CCCC(NC(=O)[C@@H](Cc2ccccc2)NC(=O)C2(NC(=O)c3cc4ccccc4s3)CCCCC2)C1.O=C(O)C(F)(F)F` (stereo in doubt) [Example 22, N^γ{N^α[N^α(benzo[b]thiophen-2-ylcarbonyl)-1-aminocyclohexan-1-carboxy]-D-phenylalanyl}-3-cis-aminocyclohexan-1-carboxylic-acid-N-(5-aminopentyl)-amide trifluoroacetate salt] had a pKi under setting [1] of 9.2. Still for that read-out and setting: the value for `N[C@H]1CCCC[C@@H]1NC(=O)[C@@H]1CC[C@H](NC(=O)[C@@H](Cc2ccccc2)NC(=O)C2(NC(=O)c3ccc(-c4ccccc4)cc3)CCCC2)C1.O=C(O)C(F)(F)F` [Example 3, N^γ{N^α[N^α(biphen-4-ylcarboxy)-1-aminocyclopentan-1-carboxy]-D-phenylalanyl}-(1R,3S)-3-aminocyclopentane-1-carboxylic-acid-N-((1S,2S)-2-aminocyclohexyl)amide trifluoroacetate salt] was 9.6. Still for that read-out and setting: the value for `Cn1c(C(=O)NC2(C(=O)N[C@H](Cc3ccccc3)C(=O)N[C@H]3CC[C@@H](C(=O)N[C@H]4CCCC[C@@H]4N)C3)CCCC2)cc2ccccc21.O=C(O)C(F)(F)F` [Example 4, N^γ{N^α[N^α(N-(methyl)indol-2-ylcarboxy)-1-aminocyclopentan-1-carboxy]-D-phenylalanyl}-(1R,3S)-3-aminocyclopentane-1-carboxylic-acid-N-((1S,2S)-2-aminocyclohexyl) amide trifluoroacetate salt] was 9.8; that for `Cc1ccc(C=CC(=O)NC2(C(=O)N[C@H](Cc3ccccc3)C(=O)N[C@H]3CC[C@@H](C(=O)N[C@H]4CCCC[C@@H]4N)C3)CCCC2)cc1.O=C(O)C(F)(F)F` [Example 5, N^γ{N^α[N^α[4-(methyl)cynnamoyl]-1-aminocyclopentan-1-carboxy]-D-phenylalanyl}-(1R,3S)-3-aminocyclopentane-1-carboxylic-acid-N-((1S,2S)-2-aminocyclohexyl)amide trifluoroacetate salt] was 9.7.

Molecule `N[C@H]1CCCC[C@@H]1NC(=O)[C@@H]1CC[C@H](NC(=O)[C@@H](Cc2ccccc2)NC(=O)C2(NC(=O)c3cc4ccccc4o3)CCCC2)C1.O=C(O)C(F)(F)F` [Example 6] returned a pKi of 9.7. Consider `Cc1ccc(C[C@@H](NC(=O)C2(NC(=O)c3cc4ccccc4s3)CCCC2)C(=O)N[C@H]2CC[C@@H](C(=O)N[C@H]3CCCC[C@@H]3N(C)C)C2)cc1` [Example 9, N^γ{N^α[N^α(benzo[b]thiophen-2-ylcarbonyl)-1-aminocyclopentan-1-carboxy]-D-4-methyl-phenylalanyl}-(1R,3S)-3-aminocyclopentane-1-carboxylic-acid-N-(1S,2S)-2-dimethyl aminocyclohexyl)amide hydrochloride salt], for which the Ki under setting [1] was 1.58 nM. Still for that read-out and setting: the value for `Cc1ccc(C=CC(=O)NC2(C(=O)NC(Cc3ccccc3)C(=O)NC3CCC(C(=O)NC4CCCCC4N(C)C)C3)CCCC2)cc1` [Example 10, N^γ{N^α[N^α(4-methyl-cinnamoyl)-1-aminocyclopentan-1-carboxy]-D-phenylalanyl}-(1R,3S)-3-aminocyclopentane-1-carboxylic-acid-N-((1S,2S)-2-dimethylaminocyclohexyl)amide hydrochloride salt] was 0.501 nM; that for `CN(C)[C@H]1CCCC[C@@H]1NC(=O)[C@@H]1CC[C@H](NC(=O)[C@@H](Cc2ccccc2)NC(=O)C2(NC(=O)c3cc4ccccc4o3)CCCC2)C1` [Example 11, N^γ{N^α[N^α(benzofuran-2-ylcarboxy)-1-aminocyclopentan-1-carboxy]-D-phenylalanyl}-(1R,3S)-3-aminocyclopentane-1-carboxylic-acid-N-((1S,2S)-2-dimethylaminocyclohexyl)amide hydrochloride salt] was 2 nM; that for `CN(C)[C@H]1CCCC[C@@H]1NC(=O)[C@@H]1CC[C@H](NC(=O)[C@@H](Cc2ccccc2)NC(=O)C2(NC(=O)c3ccc(-c4ccccc4)cc3)CCCC2)C1` [Example 12, N^γ{N^α[N^α(biphen-4-ylcarbonyl)-1-aminocyclopentan-1-carboxy]-D-phenylalanyl}-(1R,3S)-3-aminocyclopentane-1-carboxylic-acid-N-((1S,2S)-2-dimethylaminocyclohexyl)amide hydrochloride salt] was 0.316 nM. Same read-out and setting: for `CN(C)[C@H]1CCCC[C@@H]1NC(=O)[C@@H]1CC[C@H](NC(=O)[C@@H](Cc2ccccc2)NC(=O)C2(NC(=O)c3cc4ccccc4n3C)CCCC2)C1` [Example 13, N^γ{N^α[N^α((methyl)indol-2-ylcarboxy)-1-aminocyclopentan-1-carboxy]-D-phenylalanyl}-(1R,3S)-3-aminocyclopentane-1-carboxylic-acid-N-((1S,2S)-2-dimethylaminocyclohexyl)amide hydrochloride salt] the value was 1 nM.

For `CC[C@@](C)(NC(=O)c1cc2ccccc2s1)C(=O)N[C@H](Cc1ccccc1)C(=O)N[C@H]1CC[C@@H](C(=O)N[C@H]2CCCC[C@@H]2N)C1.O=C(O)C(F)(F)F` [Example 14, N^γ{N^α[N^α(benzo[b]thiophen-2-ylcarbonyl)-(R)-α-methyl-α-ethylglycyl]-D-phenylalanyl}-(1R,3S)3-amino cyclopentane-1-carboxylic-acid-N-((1S,2S)-2-aminocyclohexyl) amide trifluoroacetate salt], the negative-log Ki (pKi) under setting [1] is 9.9. `CC[C@@](C)(NC(=O)C=Cc1ccc(C)cc1)C(=O)N[C@H](Cc1ccccc1)C(=O)N[C@H]1CC[C@@H](C(=O)N[C@H]2CCCC[C@@H]2N)C1.O=C(O)C(F)(F)F` [Example 15, N^γ{N^α[N^α(4-methylcinnamoyl)-(R)-α-methyl-α-ethylglycyl]-D-phenylalanyl}-(1R,3S)-3-amino cyclopentane-1-carboxylic-acid-N-((1S,2S)-2-aminocyclohexyl) amide trifluoroacetate salt] had a pKi under setting [1] of 10.0. `Cc1ccc(C[C@@H](NC(=O)C2(NC(=O)c3ccc(-c4ccccc4)cc3)CCCC2)C(=O)N[C@H]2CC[C@@H](C(=O)N[C@H]3CCCC[C@@H]3N)C2)cc1` [Example 16, N^γ{N^α[N^α(biphenyl-4-carboxy)-1-aminocyclopentan-1-carboxy]-R-3(4(methyl)phenyl)alanyl}-(1R,3S)-3-aminocyclopentane-1-carboxylic-acid-N-((1S,2S)-2-aminocyclohexyl) amide hydrochloride salt] showed a Ki under setting [1] of 0.501 nM. Consider `Cc1ccc(C[C@@H](NC(=O)C2(NC(=O)c3cc4ccccc4n3C)CCCC2)C(=O)N[C@H]2CC[C@@H](C(=O)N[C@H]3CCCC[C@@H]3N)C2)cc1` [Example 17, N^γ{N^α[N^α(N-(methyl)indol-2-ylcarboxy)-1-aminocyclopentan-1-carboxy]-R-3-(4-methyl)phenyl)alanyl}-(1R,3S)-3-aminocyclopentane-1-carboxylic-acid-N-((1S,2S)-2-aminocyclohexyl)amide hydrochloride salt], for which, under setting [1], the Ki is 2.51 nM.

As for `Cc1ccc(C=CC(=O)NC2(C(=O)NC(Cc3ccc(C)cc3)C(=O)NC3CCC(C(=O)NC4CCCCC4N)C3)CCCC2)cc1` [Example 18, N^γ{N^α[N^α(4-(methyl)cynnamoyl)-1-aminocyclopentan-1-carboxy]-R-3[4-methyl)phenyl]alanyl}-(1R,3S)-3-aminocyclopentane-1-carboxylic-acid-N-((1S,2S)-2-aminocyclohexyl)amide hydrochloride salt], the Ki under setting [1] was 0.794 nM.
